Reference: patent US9688637B2, “3-amidobenzamides and uses thereof for increasing cellular levels of A3G and other A3 family members” (Northwestern University, priority 2014, dated 2017)

What was measured:
293T cells = test: Cellular cytotoxicity by counting cells after 48 hrs with compound vs DMSO; format: cell-based; settings: 48 hrs; for Cytotoxicity: Cell Proliferation Blocked at: concentration at which proliferation was blocked
Procedure: (§1) To screen compounds that can boost A3G levels, 293T cells (25,000 cells per well in 96-well plate) stably expressing A3G-Luc protein or A3G-Luc/Vif proteins were plated. After 24 hrs post plating culture medium was replaced with 100 μl of new medium containing either DMSO as a control or various compounds (10 μM concentration). After 48 hrs of incubation with compounds culture medium was removed from each well and replaced with 100 μl of Britelite Plus luciferase assay substrate (PerkinElmer). Following 5 min. of incubation at room temperature, 75 μl of each cell lysate was transferred to a 96-well OptiPlate 96 (PerkinElmer) and luminescence was measured in a VICTOR X2 Multilabel Reader (PerkinElmer). Relative activity of compounds for their boosting capability A3G-Luc activity was calculated by plotting DMSO-treated A3G-Luc or A3G-Luc/Vif cells as 100%. Cellular cytotoxicity was measured by counting number of cells after 48 hrs of incubation with compounds compared to DMSO treated cells.

A3G-Luc/Vif [1] = test: A3G-Luc/Vif luciferase screen in 293T cells stably co-expressing A3G-Luc and HIV-1 Vif; format: cell-based, human; settings: 30 μM, 48 hrs, DMSO = 100%
A3G-Luc = A3G-Luc luciferase screen in 293T cells stably expressing A3G-Luc; format: cell-based, human; settings: 48 hrs, DMSO = 100%
Source text: This background led to construction of cell lines to use in a search for compounds that might boost levels of A3s in the HIV target cells of the majority of HIV-infected persons who are non-controllers. The goal is to test a strategy of using such a booster in acute/early infection to prevent the hypothesized decrease of A3G and related A3s in an effort to increase “control” in persons lacking HLA B57/27-associated control. […] 293T and TZM-bl cells were maintained in DMEM (containing 4.5 g/liter glucose, L-glutamine, and sodium pyruvate) medium plus 10% fetal bovine serum, 50 IU/ml penicillin, and 50 μg/ml streptomycin at 37° C. and 5% CO2 throughout the experiments. […]. After collecting viral supernatant, 293T cells were infected with viral particles harboring the A3G-Luc expressing vector and selected with puromycin (0.75 μg/ml) for three days. Ten single cell clones of stable cells were isolated and tested for expression of A3G-Luc protein by both immunoblotting using antibody against A3G and measuring luciferase activity. Expressions in cell lines used for subsequent experiments are depicted in FIG. 2, upper panel. The A3G-Luc fusion protein was sensitive to Vif-mediated degradation (FIG. 3). Similar cells lines stably expressing A3F were constructed with the same methods (not shown).
as §1, with “After 24 hrs post plating culture medium was replaced with 100 μl of new medium containing either DMSO as a control or various compounds (10 μM concentration).” left out

Wild-type HIV-1 [2] = test: A3F-mediated restriction of wild-type HIV-1; virus from 293T stably expressing A3F, TZM-bl readout; format: cell-based; settings: Human immunodeficiency virus 1, HEK-293T, read-out: A3F-mediated Restriction by Compounds on Wild-type HIV-1 (% of HIV replication relative to DMSO treated Control)
Procedure: (§2) To test the effect of compounds shown to boost A3G-Luc levels in our screening systems on inhibition of wild-type HIV-1 replication by A3G or A3F, 293T cell lines stably expressing A3G or A3F were plated (750,000 cells per well in 6-well plate). At 24 hrs post plating, 1.5 μg of a wild-type (Vif-positive) HIV-1 proviral vector, NL4.3, was transfected into the 293T stable cell lines expressing either A3G or A3F. At 4 hrs post transfection, either DMSO as a control or an individual compound from series described below was added into the culture medium at a 10 μM concentration. At 1 day post transfection, supernatant fluids containing viral particles were filtered through […] filter to remove cellular debris. To test the effect of compound on HIV-1 replication, TZM-bl indicator cells were plated at a density of 10,000 cells/well in a 96 well culture plate 24 hrs prior to infection. TZM-bl indicator cells express luciferase gene under the control of HIV LTR promoter and are routinely used to measure HIV-1 replication capability. On the day of infection, the culture medium was removed and the cells inoculated with equal amount of HIV-1 particles in triplicate with 100 μl of viral supernatants in culture medium containing 20 μg/ml DEAE-dextran. After 24 hrs of incubation, culture medium was removed from each well and replaced with 100 μl of Britelite Plus luciferase assay substrate. Following 5 min. of incubation at room temperature, 75 μl of each cell lysate was transferred to a 96-well OptiPlate 96 and luminescence was measured in a VICTOR X2 Multilabel Reader as described above. Relative infectivity was calculated by plotting luciferase activity from viral particle from DMSO treated A3G or A3F cell lines as 100%. We only tested effect A3F- or A3G mediated restriction of HIV-1 replication by compounds boosting luciferase activity by more than 160% compared to DMSO control sample.

A3G-Luc/Vif [3] = test: A3G-Luc/Vif luciferase screen in 293T cells stably co-expressing A3G-Luc and HIV-1 Vif; format: cell-based, human; settings: 10 μM, 48 hrs, DMSO = 100%
Procedure: FIG. 6. 293T cell clone #6 stably co-expressing A3G-Luciferase fusion protein together with HIV-1 Vif was used. Small molecule compounds were tested for their effects on stability of A3G and inhibition of Vif activity against A3G by measuring luciferase activity, relative to treatment with control DMSO only. The relative % luciferase activity was higher after treatment with NU compounds than DMSO.
[…]. After sorting, expression of both A3G-Luc and Vif was confirmed by immunoblotting using antibody against both A3G and Vif.
as §1

Wild-type HIV-1 [4] = test: A3G-mediated restriction of wild-type HIV-1; virus from 293T stably expressing A3G, TZM-bl readout; format: cell-based; settings: Human immunodeficiency virus 1, HEK-293T, read-out: A3G-mediated Restriction by Compounds on Wild-type HIV-1 (% of HIV replication relative to DMSO treated Control)
Procedure: as §2

BC-1 = BC-1 primary effusion lymphoma cell proliferation; format: cell-based; settings: primary effusion lymphoma (PEL) cell line (FIG. 10)
Source text: FIG. 10. A primary effusion lymphoma (PEL) cell line (BC-1, infected with both Kaposi's sarcoma herpesvirus and Epstein Barr Virus) is also killed by the listed compounds.

Row | Compound | A3G-Luc Activity (% of Relative Light Units compared to DMSO treated control) (A3G-Luc; 10 μM) [%] | activity at 10 µM (Wild-type HIV-1 [2]) [%] | Vif-A3G-Luc Activity (% of RLUs compared to DMSO treated control) (A3G-Luc/Vif [3]) [%] | activity at 10 µM (Wild-type HIV-1 [4]) [%] | also measured
1 | COc1ccc(C(=O)Nc2cc(OC)c(OC)c(OC)c2)cc1N [NU-49] | – | – | – | – | Cytotoxicity: Cell Death at (293T cells; concentration at which cell death was seen): Cell Death at 10 μM
2 | COc1ccc(NC(=O)c2ccc(OC)c(NC(=O)C(C)C)c2)cc1 [NU-54] | – | – | – | – | Vif-A3G-Luc Activity (% of RLUs compared to DMSO treated control) (A3G-Luc/Vif [1]): 116%; A3G-Luc Activity (% of Relative Light Units compared to DMSO treated control) (A3G-Luc; 30 μM): 137%
3 | COc1ccc(C(=O)Nc2cc(OC)c(OC)c(OC)c2)cc1NC(=O)C(C)C [NU-56] | – | – | – | – | Vif-A3G-Luc Activity (% of RLUs compared to DMSO treated control) (A3G-Luc/Vif [1]): 93%; A3G-Luc Activity (% of Relative Light Units compared to DMSO treated control) (A3G-Luc; 30 μM): 114%
4 | CCC(=O)Nc1cc(C(=O)Nc2cc(OC)c(OC)c(OC)c2)ccc1OC [NU-57] | – | – | – | – | Vif-A3G-Luc Activity (% of RLUs compared to DMSO treated control) (A3G-Luc/Vif [1]): 74%; A3G-Luc Activity (% of Relative Light Units compared to DMSO treated control) (A3G-Luc; 30 μM): 87%
5 | COc1ccc(C(=O)Nc2cc(OC)c(OC)c(OC)c2)cc1NC(C)=O [NU-58] | – | – | – | – | Vif-A3G-Luc Activity (% of RLUs compared to DMSO treated control) (A3G-Luc/Vif [1]): 93%; A3G-Luc Activity (% of Relative Light Units compared to DMSO treated control) (A3G-Luc; 30 μM): 123%
6 | CC(C)(C)OC(=O)NCCOCCOc1ccc(C(=O)Nc2ccc(Cl)c(Cl)c2)cc1N [NU-124] | 25 | – | – | – | Cytotoxicity: Cell Proliferation Blocked at (293T cells): Cell Proliferation Blocked at 10 μM
7 | CC(C)C(=O)Nc1cc(C(=O)Nc2ccc(Cl)c(Cl)c2)ccc1OCCOCCNC(=O)OC(C)(C)C [NU-125] | 25 | – | – | – | Cytotoxicity: Cell Proliferation Blocked at (293T cells): Cell Proliferation Blocked at 10 μM
8 | CC(C)(C)OC(=O)NCCOCCOc1ccc(C(=O)Nc2ccc(Cl)c(Cl)c2)cc1NC(=O)CC1CC1 [NU-126] | 4.8 | – | – | – | Cytotoxicity: Cell Proliferation Blocked at (293T cells): Cell Proliferation Blocked at 10 μM
9 | CC(C)C(=O)Nc1cc(C(=O)Nc2ccc(Cl)c(Cl)c2)ccc1OCCOCCNC(=O)CCCCC1SC[C@@H]2NC(=O)N[C@H]12 (some centres unmarked) [NU-127] | 68 | – | – | – | Cytotoxicity: Cell Proliferation Blocked at (293T cells): Cell Proliferation Blocked at 10 μM
10 | COc1ccc(C(=O)Nc2ccc(Cl)c(Cl)c2)cc1NC(=O)C(C)(C)C [NU-458] | 189 | 45 | 123 | 54 | –
11 | COC(=O)Nc1cc(C(=O)Nc2ccc(Cl)c(Cl)c2)ccc1OC [NU-460] | 254 | 34 | 119 | 34 | –
12 | COCC(=O)Nc1cc(C(=O)Nc2ccc(Cl)c(Cl)c2)ccc1OC [NU-462] | 282 | 53 | 170 | 62 | –
13 | COCCC(=O)Nc1cc(C(=O)Nc2ccc(Cl)c(Cl)c2)ccc1OC [NU-463] | 287 | 67 | 178 | 64 | –
14 | COc1ccc(C(=O)Nc2ccc(Cl)c(Cl)c2)cc1NC(=O)C1CCCO1 (centres unmarked) [NU-464] | 288 | 77 | 170 | 77 | –
15 | COc1ccc(C(=O)Nc2ccc(Cl)c(Cl)c2)cc1NC(=O)C1CC1C (centres unmarked) [NU-465] | 193 | 53 | 106 | 47 | –
16 | COc1ccc(C(=O)Nc2ccc(Cl)c(Cl)c2)cc1NS(C)(=O)=O [NU-467] | 194 | 64 | 146 | 79 | –
17 | COc1ccc(C(=O)Nc2ccc(Cl)c(Cl)c2)cc1NS(=O)(=O)C(C)C [NU-468] | 213 | 48 | 147 | 58 | –
18 | COc1ccc(C(=O)Nc2ccc(Cl)c(Cl)c2)cc1NC(=O)CN(C)C [NU-471] | 238 | 65 | 175 | 66 | –
19 | COc1ccc(C(=O)Nc2ccc(Cl)c(Cl)c2)cc1NC(=O)N(C)C [NU-472] | 238 | 49 | 146 | 61 | –
20 | COc1ccc(C(=O)Nc2ccc(Cl)c(Cl)c2)cc1N(C)C(=O)C(C)C [NU-611] | 67 | – | 75 | – | BC-1 cell proliferation (BC-1): inhibit BC-1 cell proliferation
21 | CCOc1ccc(C(=O)Nc2ccc(Cl)c(Cl)c2)cc1NC(=O)C1CCC1 [NU-612] | 202 | 96 | 178 | 81 | –
22 | CCOc1ccc(C(=O)Nc2ccc(Cl)c(Cl)c2)cc1NC(=O)CC1CC1 [NU-613] | 186 | 85 | 158 | 98 | –
23 | COCCOc1ccc(C(=O)Nc2ccc(Cl)c(Cl)c2)cc1NC(=O)C1CCC1 [NU-616] | 171 | – | 152 | 95 | –
24 | COCCOc1ccc(C(=O)Nc2ccc(Cl)c(Cl)c2)cc1NC(=O)CC1CC1 [NU-617] | 191 | – | 182 | 74 | –
